Literature values as cited in US20120122825A1, “USE OF PICOPLATIN TO TREAT PROSTATE CANCER” (Poniard Pharmaceuticals, Inc., priority 2009, published 2012).

Columns and labels:
[1] = system: patients with solid tumors; conditions: picoplatin and docetaxel combination, 33 patients with solid tumors
[2] = 30 mg/m^2 docetaxel weekly for 5 of 6 weeks plus 5 mg prednisone twice daily

- recommended Phase II dose (PTD) [1]: 75 mg/m^2
Structure (SMILES): CC(=O)O[C@@]12CO[C@@H]1C[C@H](O)[C@@]1(C)C(=O)[C@H](O)C3=C(C)[C@@H](OC(=O)[C@H](O)[C@@H](NC(=O)OC(C)(C)C)c4ccccc4)C[C@@](O)([C@@H](OC(=O)c4ccccc4)[C@H]21)C3(C)C [docetaxel]
- dose limiting toxicity (DLT) dose [1]: 75 mg/m^2
- >50% reductions in PSA, share of men (men with HRPC; [2]): 48%
- Overall survival (men with HRPC; [2]): 17.4 months
- PSA response expected (men with HRPC; docetaxel alone, comparison value): 45%
